87 compounds from a melting point compilation (Tetko et al.; mined from patent text by program, amines drawn as free bases though some values may be those of a salt) can be followed below.

By melting point is commonly meant the temperature, or range, at which the solid turns liquid.

With `COc1ccc(C2=C(C#N)C(c3cccc4nonc34)c3c[nH]nc3N2)cc1` (configuration not stated), the melting point turned out to be 244 °C.
Next, `COc1ccc(-c2cc3ccccc3[nH]2)cc1NCc1ccc([N+](=O)[O-])c(O)c1`: 134 to 135 °C.
For `Cc1ccc(S(=O)(=O)N2[C@@H](C(=N)NO)CC[C@H]2c2ccc(F)cc2)cc1` (racemic) the value was 217 °C.
Next, `N=C(NCc1ccccn1)NN=Cc1c(Cl)cccc1Cl`: 125 to 140 °C; `Cc1cccc(NC(=O)OC(C)(C)C)c1COc1cccn2c(C)c(C)nc12`: 128 to 131 °C.
On to `Nc1nc(C(F)(F)F)c(-c2ccncc2)cc1C(=O)O`, for which the melting point is > 283 °C.
Next, `CN(c1ccc2c(c1)S(=O)(=O)C=C(c1c(O)c3cc(F)ccc3n(CCC3CC3)c1=O)N2)S(C)(=O)=O`: 208 to 212 °C; `N#Cc1cnc2c(sc3c([N+](=O)[O-])cccc32)c1Nc1cccc(Br)c1`: 288 to 290 °C; `OC(Cc1ccccc1)(Cn1cncn1)c1ccccc1` (configuration not stated): 134 °C.
Next, `CC(=O)OC1CC2(C)C(CCC2(O)C(C)=O)C2CCC3=CC(=O)CCC3(C)C12` (configuration not stated): 160 °C; `CS(=O)(=O)c1ccc(C(=O)O)c(F)c1`: 187 to 188 °C.
For `O=C1Cc2cc3c(cc2C(c2ccccc2Cl)N1)OCO3` (configuration not stated) the value was 207 to 209 °C.
The compound `Oc1ccc(CC2CO2)cc1` (racemic) gave a melting point of 54 to 57 °C.
Regarding `CCOCCOc1cc(OC)c(C(CC(=O)Nc2cc(C(N)=O)ccc2C(C)(C)C)CC(C)C)cc1Cl` (configuration not stated), the melting point was in the range of 180 to 181 °C.
Next, `CC(C)(C)OC(=O)N(CCCCC(=O)c1cc2c3c(c1)CCN3C(=O)CC2)CCc1ccccc1O`: 154 to 155 °C; `N#Cc1nn(-c2c(Cl)cc(C(F)(F)F)cc2Cl)c(N)c1SC(F)(F)C(F)(F)F`: 134 to 136 °C; `CCOC(=O)c1ccc(C=CC2(O)CN3CCC2CC3)cc1` (configuration not stated): 160 to 162 °C.
For `CCC(=O)N1N=C(c2ccc([N+](=O)[O-])c(C)c2)c2cc3c(cc2CC1(C)C#N)OCO3` (configuration not stated) the value was 191 to 193 °C; for `COc1ccc(-n2c(=O)cc(C(F)(F)F)n(C)c2=O)c2c1CC(C)(C)O2`, 201 to 203 °C.
The compound `O=C(NCCc1c(Cl)cccc1Cl)c1c(Cl)ccc2nc(N3CCC(C(=O)O)CC3)ccc12` came in with a melting point of 262 to 264 °C.
For `COC(=O)c1ccc(OC2=C(Oc3ccc(C(=O)OC)cc3)C(F)(F)C(F)(F)C2(F)F)cc1` the value was 67 °C.
Regarding `Cc1ccc(S(=O)(=O)N2CC2CCOS(C)(=O)=O)cc1` (configuration not stated), the melting point was in the range of 78 to 80 °C.
Turning to `CCOC(=O)CN(Cc1ccccc1Cl)c1ccc(C(O)(C(F)(F)F)C(F)(F)F)cc1`, the melting point was 146 °C.
For `COc1ccc2oc3ccc([N+](=O)[O-])cc3c2c1C(=O)Nc1ccncc1` the value was 222 °C; for `CC(Br)C(=O)N1C(=O)c2ccccc2OC12CCCCC2` (configuration not stated), 74 to 76 °C; for `CCOC(=O)Cc1csc(NS(C)(=O)=O)n1`, 207 to 208 °C.
With `CCOC(=O)c1c(CCl)nc2ccc(Cl)cc2c1-c1ccc(Cl)cc1`, the melting point lay within 140 to 141 °C.
For `O=C1C(=CCc2ccccc2)SC(=S)N1N=c1sc2ccccc2s1` the value was 233 to 234 °C; for `O=C(O)CCCC(CCCNS(=O)(=O)c1ccc(Cl)cc1)CCc1cccnc1` (configuration not stated), 83 to 85 °C.
For `CN(C)C=NS(=O)(=O)c1c(C(F)(F)F)nc2ccc(Cl)nn12` the value was 204 to 205 °C; for `FC(F)(F)c1ccc2[nH]c(-c3csc(Cc4c(Cl)cccc4Cl)n3)nc2c1`, 187 to 189 °C.
For `CCOC(C)n1cnc(-c2ccc(F)cc2)c1-c1ccc(F)cc1` (configuration not stated) the value was 105 to 107 °C.
The compound `OCC1CC(O)C(n2c(NC3CC3)nc3cc(Cl)c(Cl)cc32)C1` (configuration not stated) gave a melting point of 251 to 253 °C.
For `CCOC(=O)NC(=O)C(C#N)=CNc1ccc(Cl)cc1` the value was 177 to 183 °C.
Next, `COC(=O)c1nc(N)sc1-c1ccccc1`: 208 °C; `COc1cc(-c2ccc(C(C)(C)C)s2)cc2oc(=O)c(C)c(C)c12`: 137 °C; `CCN1CCN(C(=O)c2ccc(-c3cc(-c4c(-c5cccc(C)n5)nc5c(C)cccn45)ccn3)cc2)CC1`: 212 °C.
For `O=C(Nc1ncc(Br)cn1)c1ccccc1SSc1ccccc1C(=O)Nc1ncc(Br)cn1`, the melting point lay within 249 to 253 °C.
`O=C(Oc1ccccc1)c1ccc(C(=O)Oc2ccccc2)c(C(=O)Oc2ccccc2)c1` had a melting point of 156 to 158 °C.
For `CCCSc1sc(C(N)=O)c2c1-c1nc(-c3ccccc3)sc1CC2` the value was 203 to 204 °C; for `O=C(O)c1ccc(S(=O)(=O)Oc2ccc(-c3ccc(-c4c(C(=O)c5ccccc5)oc5ccccc45)cc3)cc2[N+](=O)[O-])cc1O`, 105 to 107 °C.
With `C=C1c2ccccc2-c2ccccc21`, the melting point was 46 to 48 °C.
Consider `O=C(NCCSCc1cccc(Cl)c1)c1c([N+](=O)[O-])cccc1[N+](=O)[O-]`, for which the melting point lay within 139 to 140 °C.
Consider `CCOC(=O)c1nc(C)c(SC)c(O)n1`, for which the melting point amounted to 139 °C.
Next, `COC(=O)c1ccc2c(c1)SCCC2NC(=O)OCc1ccccc1` (configuration not stated): 128 to 130 °C; `CCCCCCC(NC(=O)OCc1ccccc1)P(=O)(O)CC(=O)OC` (configuration not stated): 260 to 268 °C.
For `Nc1ccc(C(=O)N2CCC=Cc3sccc32)c(Cl)c1` the value was 192 to 200 °C.
Next, `CSc1ccc(-c2ccccc2)c(NC(N)=S)c1`: 166 to 167 °C; `O=C1O[C@@H](Cn2ccnn2)CN1c1ccc(-c2ccc(C3=NOC(CS(=O)(=O)CCO)C3)nc2)c(F)c1` (some centres not stated): 210 °C.
`CC(Oc1ccc(F)cc1Cl)c1ccnc2ncnn12` (configuration not stated) registered a melting point of 89 to 91 °C.
For `COc1c(C2CCN(CCCCNC(=O)c3c(C)nc(-c4ccc(Cl)cc4)n3C)CC2)ccc2c1CCCC2` the value was 150 °C; for `CCCCCOc1cccc(N)c1C#N`, 70 to 73 °C.
Next, `C=CCN1C(=O)COc2cc(Br)c(F)cc21`: 92 °C; `OC1(c2cccs2)CCN(CCCc2nnc3n2CCCCC3)CC1`: 162 to 163 °C.
Next, `COCCOC(=O)c1cc(-c2c(C(F)(F)F)nc(OC)[nH]c2=O)c(F)cc1Cl`: 63 to 65 °C; `CCOc1ccc2nc3[nH]c(=O)[nH]c3cc2c1`: > 320 °C; `Cc1cnc(N)c(Br)n1`: 51 to 52 °C.
The compound `NC(=O)c1nc(-c2ccc(Oc3ccc(F)cc3)c(F)c2)cs1` returned a melting point of 183 °C.
For `CC(=O)Oc1nsnc1-c1c(Cl)cccc1Cl` the value was 56 to 59 °C; for `CN1C2CCC1CN(c1ccc3cc([N+](=O)[O-])ccc3n1)C2`, 152 to 154 °C; for `CNc1cc(F)ccc1C(=O)Cc1nnn[nH]1`, 214 to 216 °C.
For `Clc1nc(-c2ccccc2)nc(-c2ccccc2)n1` the value was 136 to 138 °C; for `CC(C)c1cccc(C(C)C)c1NC(=O)NC(Cc1ccccc1)c1ccccc1` (configuration not stated), 219 to 221 °C.
Next, `Nc1c(F)c(F)c(F)c2c1c(=O)c(C(=O)O)cn2C1CC1`: 269 to 271 °C; `COC(=O)[C@H]1C[C@H](n2c(Br)c(-c3cccc(OCc4ccccc4)c3)c3c(N)ncnc32)C1`: 124 to 125 °C.
For `Cc1cc(CNc2cccc3c2C(=O)N(C2CCC(=O)NC2=O)C3=O)oc1C` (configuration not stated), the melting point was in the range of 127 to 129 °C.
Next, `CC12CCC(C(=O)Nc3ccccc3C(c3ccc(O)cc3)c3ccc(O)cc3)(OC1=O)C2(C)C` (configuration not stated): 229 to 231 °C; `CCOC(=O)C=Cc1ccc(C=Cc2ccc(C=CC(=O)O)cc2)cc1`: 245 to 248 °C.
Next, `Cc1ccccc1Cc1n[nH]c2c1c(=O)n(-c1cccc(C(F)(F)F)c1)c1ncccc21`: 249 to 252 °C.
With `c1cc(Oc2cnccn2)c2cc[nH]c2c1`, the melting point was 192 to 193 °C.
Next, `O=C(COc1cc(C(=O)N2CCOCC2)ccc1[N+](=O)[O-])c1ccccc1`: 172 to 173 °C; `CC1(C)CC(OC(=O)N=NC(=O)OC2CC(C)(C)N(OC3CCCCC3)C(C)(C)C2)CC(C)(C)N1OC1CCCCC1`: 189 to 191 °C.
Regarding `CCCN(CCC)CC(=O)Nc1ncc(Oc2cc(I)c(OC)cc2C(C)C)c(N)n1`, the melting point was 129 to 131 °C.
For `CCOc1cc2c(cc1OC(C)=O)OCS2` the value was 131 °C; for `CCc1cc(CCN2C(=O)c3ccccc3C2=O)c(OC)nc1C`, 77 to 79 °C; for `O=C1CNc2ncc(I)cc2N1Cc1ccccc1OC(F)(F)F`, 235 °C.
`O=[N+]([O-])c1ccc(O)c(Cn2c(=S)sc3ccccc32)c1` showed a melting point of 231 °C.
Next, `O=C(O)CCCCCSc1ccc(-c2ccc(Cl)cc2)cc1`: 156 to 157 °C.
`COc1cc2c(cc1OC)CN(CCc1ccc(N)cc1)C2` displayed a melting point of 150 °C.
For `COC(=O)[C@H](Cc1cc(Cl)c(OCc2cccc3nc(-c4ccccc4)oc23)c(Cl)c1)NC(=O)C(F)(F)F` the value was 168 to 170 °C; for `Cc1c(C)c2c(c(C)c1O)C(=O)CC(CCC(C)CCCC(C)C)(COc1ccc([N+](=O)[O-])cc1)O2` (configuration not stated), 121 to 123 °C; for `COc1cc(OC)nc(C2OC(=O)c3c(-c4cccs4)ccnc32)n1` (configuration not stated), 120 to 123 °C.
For `Cc1cc(C)c(-c2cn(C)c3c(O)ncnc23)c(C)c1`, the melting point lay in the range of 230 to 232 °C.
Next, `COc1ccc2c(c1)C(=O)N(c1ccc3c(ccn3C)n1)C2`: 230 to 234 °C; `COc1nc(N)nc(OCC(F)(F)F)n1`: 78 to 80 °C; `CC(C)N1CC(Oc2ccc(-c3cccc(N)n3)c3ccccc23)C1`: 120 to 135 °C.
`Cc1nn(-c2ccc(Cl)nn2)c(C)c1Br` showed a melting point of 143 to 145 °C.
